In assay [1] the target is T1, wild type Bcr-abl (Homo sapiens, UniProt P00519).
T1 construct: the major C-terminal part (exons 2-11) of the c-abl gene; expressed in transfected cells; host or cells: murine 32D (32D-p210) or Ba/F3 cells; the other entry of the earlier key: BCR (P11274, Breakpoint cluster region protein)
In words: Antiproliferative effect on cells expressing wild type Bcr-abl. The format is cell-based. The conditions noted are these: cell proliferation. The method, then: 32D-p210 cells are plated into 96 well TC plates at a density of 15,000 cells per well. 50 μL of two fold serial dilutions of the test compound (Cmax is 40 μM) are added to each well (STI571 is included as a positive control). After incubating the cells for 48 hours at 37° C., 5% CO2, 15 μL of MTT (Promega) is added to each well and the cells are incubated for an additional 5 hours. The optical density at 570 nm is quantified spectrophotometrically and IC50 values, the concentration of compound required for 50% inhibition, determined from a dose response curve.
Compounds of the invention are tested for their antiproliferative effect on Ba/F3 cells expressing either wild type or the mutant forms of BCR-Abl (G250E, E255V, T315I, F317L, M351T) that confers resistance or diminished sensitivity to STI571. The antiproliferative effect of these compounds on the mutant-BCR-Abl expressing cells and on the non transformed cells were tested at 10, 3.3, 1.1 and 0.37 μM as described above (in media lacking IL3). The IC50 values of the compounds lacking toxicity on the untransformed cells were determined from the dose response curves obtained as describe above.

For assay [2], the target named is PDGFRβ (Homo sapiens, UniProt P09619). Kind of assay: Inhibition of PDGFRβ. The format is biochemical. How it is done:
Compounds selectively inhibiting the proliferation of these BCR-Abl transformed cells are tested for anti-proliferative activity on Ba/F3 cells expressing either wild type or the mutant forms of Bcr-abl. In addition, compounds are assayed to measure their capacity to inhibit FGFR35 (in an enzyme and cellular assay), FLT3, PDGFRβ, trkB, c-SRC, BMX, SGK, Tie2, Lck, JNK2α2, MKK4, c-RAF, MKK6, SAPK2α and SAPK2β kinases.

The target in assay [3] is T2, FGFR35 (Homo sapiens, UniProt P22607). In words: FGFR35 (enzymatic assay), HTRF. Details: purchased Upstate. The format is biochemical. The conditions noted are these: purified FGFR35, 3 μM ATP; read-out: IC50 for the FGFR35 enzyme assay. The method, then: Kinase activity assay with purified FGFR35 (Upstate) is carried out in a final volume of 10 μL containing 0.25 μg/mL of enzyme in kinase buffer (30 mM Tris-HCl pH7.5, 15 mM MgCl2, 4.5 mM MnCl2, 15 μM Na3VO4 and 50 μg/mL BSA), and substrates (5 μg/mL biotin-poly-EY(Glu, Tyr) (CIS-US, Inc.) and 3 μM ATP). Two solutions are made: the first solution of 5 μl contains the FGFR35 enzyme in kinase buffer was first dispensed into 384—format ProxiPlate® (Perkin-Elmer) followed by adding 50 nL of compounds dissolved in DMSO, then 5 μl of second solution contains the substrate (poly-EY) and ATP in kinase buffer was added to each wells. The reactions are incubated at room temperature for one hour, stopped by adding 10 μL of HTRF detection mixture, which contains 30 mM Tris-HCl pH7.5, 0.5 M KF, 50 mM ETDA, 0.2 mg/mL BSA, 15 μg/mL streptavidin-XL665 (CIS-US, Inc.) and 150 ng/mL cryptate conjugated anti-phosphotyrosine antibody (CIS-US, Inc.). After one hour of room temperature incubation to allow for streptavidin-biotin interaction, time resolved florescent signals are read on Analyst GT (Molecular Devices Corp.). IC50 values are calculated by linear regression analysis of the percentage inhibition of each compound at 12 concentrations (1:3 dilution from 50 μM to 0.28 nM).
T2 sequence (P22607 23-806): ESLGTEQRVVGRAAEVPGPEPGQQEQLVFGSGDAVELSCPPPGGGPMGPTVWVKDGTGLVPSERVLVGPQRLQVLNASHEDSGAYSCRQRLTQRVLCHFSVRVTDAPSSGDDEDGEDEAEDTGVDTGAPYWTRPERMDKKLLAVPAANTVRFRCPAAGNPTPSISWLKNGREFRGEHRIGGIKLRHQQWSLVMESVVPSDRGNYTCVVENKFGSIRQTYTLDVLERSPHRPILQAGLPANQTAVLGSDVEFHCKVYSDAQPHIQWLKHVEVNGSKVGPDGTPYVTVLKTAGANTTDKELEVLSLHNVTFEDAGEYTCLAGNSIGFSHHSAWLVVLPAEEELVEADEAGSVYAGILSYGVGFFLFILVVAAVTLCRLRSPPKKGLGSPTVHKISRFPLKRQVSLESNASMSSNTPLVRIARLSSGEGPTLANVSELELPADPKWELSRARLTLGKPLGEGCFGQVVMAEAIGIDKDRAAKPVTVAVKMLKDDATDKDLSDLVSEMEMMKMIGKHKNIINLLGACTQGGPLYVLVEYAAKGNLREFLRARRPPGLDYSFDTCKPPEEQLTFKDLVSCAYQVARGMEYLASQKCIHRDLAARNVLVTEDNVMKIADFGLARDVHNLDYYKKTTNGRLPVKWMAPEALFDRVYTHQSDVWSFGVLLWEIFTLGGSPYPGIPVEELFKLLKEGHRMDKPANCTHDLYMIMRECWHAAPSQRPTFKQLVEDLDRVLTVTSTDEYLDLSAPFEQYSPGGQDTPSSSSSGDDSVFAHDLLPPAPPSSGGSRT

Assay [4] concerns the target T2, FGFR35. Kind of assay: Upstate KinaseProfiler radio-enzymatic filter binding assay. Also on record: purchased Upstate. The format is biochemical. The conditions noted are these: read-out: percentage inhibition of FGFR35. The method, then:
Compounds of the invention are assessed for their ability to inhibit individual members of a panel of kinases (a partial, non-limiting list of kinases includes: Abl, BCR-Abl, BMX, FGFR35, Lck, JNK1, JNK2, CSK, RAF, MKK6 and P38). The compounds are tested in duplicates at a final concentration of 10 μM following this generic protocol. Note that the kinase buffer composition and the substrates vary for the different kinases included in the “Upstate KinaseProfiler™” panel. Kinase buffer (2.5 μL, 10×—containing MnCl2 when required), active kinase (0.001-0.01 Units; 2.5 μL), specific or Poly(Glu4-Tyr) peptide (5-500 μM or 0.01 mg/ml) in kinase buffer and […] are mixed in an eppendorf on ice. A Mg/ATP mix (10 μL; 67.5 (or 33.75) mM MgCl2, 450 (or 225) μM ATP and 1 μCi/μl [γ-^32P]-ATP (3000 Ci/mmol)) is added and the reaction is incubated at about 30° C. for about 10 minutes. […] The assay squares are transferred to a scintillation vial, 5 ml scintillation cocktail are added and ^32P incorporation (cpm) to the peptide substrate is quantified with a Beckman scintillation counter. Percentage inhibition is calculated for each reaction.

These results are taken from patent US8552002B2 (Novartis AG, priority 2004, dated 2013).

Sequence of PDGFRβ (P09619 33-1106, species assumed): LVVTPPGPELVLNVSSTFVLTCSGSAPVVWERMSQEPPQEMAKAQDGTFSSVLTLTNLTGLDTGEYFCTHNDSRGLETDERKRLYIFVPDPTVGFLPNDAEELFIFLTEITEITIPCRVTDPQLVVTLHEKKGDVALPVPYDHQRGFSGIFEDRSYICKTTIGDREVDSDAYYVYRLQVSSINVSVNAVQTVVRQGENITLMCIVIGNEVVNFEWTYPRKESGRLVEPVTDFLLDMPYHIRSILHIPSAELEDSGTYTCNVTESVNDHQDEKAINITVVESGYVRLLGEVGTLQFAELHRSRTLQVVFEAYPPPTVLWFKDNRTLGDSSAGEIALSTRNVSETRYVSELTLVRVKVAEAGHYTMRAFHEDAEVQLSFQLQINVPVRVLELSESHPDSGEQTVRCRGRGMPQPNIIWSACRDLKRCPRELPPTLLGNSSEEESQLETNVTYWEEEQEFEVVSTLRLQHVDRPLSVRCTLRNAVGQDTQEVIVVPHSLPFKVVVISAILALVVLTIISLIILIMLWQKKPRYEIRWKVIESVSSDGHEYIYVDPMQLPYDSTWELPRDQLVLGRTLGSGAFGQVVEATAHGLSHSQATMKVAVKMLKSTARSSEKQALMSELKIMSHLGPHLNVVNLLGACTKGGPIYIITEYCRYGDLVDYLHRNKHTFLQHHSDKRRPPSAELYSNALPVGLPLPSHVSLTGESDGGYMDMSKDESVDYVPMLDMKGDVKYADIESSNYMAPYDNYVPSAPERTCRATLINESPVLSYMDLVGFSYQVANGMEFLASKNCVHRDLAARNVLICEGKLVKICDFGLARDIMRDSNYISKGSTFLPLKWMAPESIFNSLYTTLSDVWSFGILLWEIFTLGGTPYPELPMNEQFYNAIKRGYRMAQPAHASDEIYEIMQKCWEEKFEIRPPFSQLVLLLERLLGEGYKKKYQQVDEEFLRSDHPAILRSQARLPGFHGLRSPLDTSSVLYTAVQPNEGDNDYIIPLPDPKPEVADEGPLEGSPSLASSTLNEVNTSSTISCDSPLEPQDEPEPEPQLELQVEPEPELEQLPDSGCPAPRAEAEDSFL
T1 sequence (P00519 with tags, fused parts or gaps): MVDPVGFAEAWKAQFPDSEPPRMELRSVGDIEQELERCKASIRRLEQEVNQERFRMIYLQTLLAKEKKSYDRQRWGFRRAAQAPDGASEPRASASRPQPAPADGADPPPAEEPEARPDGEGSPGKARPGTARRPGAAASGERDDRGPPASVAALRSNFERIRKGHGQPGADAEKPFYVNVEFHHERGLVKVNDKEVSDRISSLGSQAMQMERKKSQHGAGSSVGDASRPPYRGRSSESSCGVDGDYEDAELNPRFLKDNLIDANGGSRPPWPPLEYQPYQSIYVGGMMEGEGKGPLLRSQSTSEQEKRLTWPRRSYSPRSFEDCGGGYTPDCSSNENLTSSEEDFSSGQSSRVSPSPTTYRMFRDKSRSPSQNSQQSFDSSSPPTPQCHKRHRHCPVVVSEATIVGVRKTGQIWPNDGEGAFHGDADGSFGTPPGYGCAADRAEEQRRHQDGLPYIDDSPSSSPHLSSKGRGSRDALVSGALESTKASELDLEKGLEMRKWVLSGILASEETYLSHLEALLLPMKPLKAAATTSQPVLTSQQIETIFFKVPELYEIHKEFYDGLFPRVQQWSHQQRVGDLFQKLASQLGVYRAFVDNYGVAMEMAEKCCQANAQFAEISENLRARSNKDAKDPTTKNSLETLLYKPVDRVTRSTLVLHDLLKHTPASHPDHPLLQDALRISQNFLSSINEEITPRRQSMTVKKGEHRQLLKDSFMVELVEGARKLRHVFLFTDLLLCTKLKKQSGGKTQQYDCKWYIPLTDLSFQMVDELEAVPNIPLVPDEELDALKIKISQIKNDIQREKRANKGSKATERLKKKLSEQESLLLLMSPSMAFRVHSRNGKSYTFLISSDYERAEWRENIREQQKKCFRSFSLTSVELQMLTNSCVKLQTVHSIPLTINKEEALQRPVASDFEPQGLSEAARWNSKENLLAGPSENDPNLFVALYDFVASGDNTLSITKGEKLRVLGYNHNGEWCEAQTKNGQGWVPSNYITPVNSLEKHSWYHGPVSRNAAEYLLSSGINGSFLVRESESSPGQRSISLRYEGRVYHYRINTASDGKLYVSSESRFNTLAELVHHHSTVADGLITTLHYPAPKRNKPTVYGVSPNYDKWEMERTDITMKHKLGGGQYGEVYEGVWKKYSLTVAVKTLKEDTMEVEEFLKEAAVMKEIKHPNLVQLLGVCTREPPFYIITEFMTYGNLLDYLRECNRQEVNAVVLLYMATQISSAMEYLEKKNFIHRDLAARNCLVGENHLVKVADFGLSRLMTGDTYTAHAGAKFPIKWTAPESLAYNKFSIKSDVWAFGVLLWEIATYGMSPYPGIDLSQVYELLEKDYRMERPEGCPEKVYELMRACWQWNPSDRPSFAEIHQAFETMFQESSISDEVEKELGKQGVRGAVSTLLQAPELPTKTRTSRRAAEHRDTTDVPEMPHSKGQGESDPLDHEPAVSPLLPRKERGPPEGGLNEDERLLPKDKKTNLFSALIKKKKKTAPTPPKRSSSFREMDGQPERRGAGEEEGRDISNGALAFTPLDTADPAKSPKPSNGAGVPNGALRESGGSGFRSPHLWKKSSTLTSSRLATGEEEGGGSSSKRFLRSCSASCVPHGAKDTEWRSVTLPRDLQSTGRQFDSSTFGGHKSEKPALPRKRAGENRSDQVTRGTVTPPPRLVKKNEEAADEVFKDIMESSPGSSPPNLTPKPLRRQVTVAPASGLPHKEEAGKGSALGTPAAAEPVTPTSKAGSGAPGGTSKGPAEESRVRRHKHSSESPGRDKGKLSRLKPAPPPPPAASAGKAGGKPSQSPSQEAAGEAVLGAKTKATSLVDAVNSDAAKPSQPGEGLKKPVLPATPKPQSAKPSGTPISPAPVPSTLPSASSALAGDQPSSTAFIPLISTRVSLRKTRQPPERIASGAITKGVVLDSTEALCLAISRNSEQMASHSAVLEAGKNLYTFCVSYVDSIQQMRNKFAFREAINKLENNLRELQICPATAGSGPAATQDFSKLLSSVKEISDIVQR

Take `Cc1ccc(NC(=O)c2cccc(C(F)(F)F)c2)cc1NC(=O)N(CCCN1CCCC1=O)c1cc(N)ncn1` [Example 215, N-(3-{3-(6-Amino-pyrimidin-4-yl)-3-[3-(2-oxo-pyrrolidin-1-yl)-propyl]-ureido}-4-methyl-phenyl)-3-trifluoromethyl-benzamide]: the values for the IC50 in assay [1], in assay [2] and in assay [3] were 10 nM, 2 nM and 16 nM, respectively. The inhibition at 10 µM in assay [4] was 99%.

The IC50 is the concentration needed to halve the response being measured. One may read the inhibition as how much of the control response was suppressed.
